Measurements as given in US11617356B2, “Mouse lymphoma cell line and animal model of human high grade B-cell lymphoma” (PÉCSI TUDOMÁNYEGYETEM, priority 2015, dated 2023).

Test system: Bc-DLFL.1 cells
Assay: short-term in vitro survival of Bc-DLFL.1 cells on addition of recombinant BAFF
Format: cell-based, mouse
Settings: addition of recombinant BAFF to culture; data not shown
Text: The specific conditions needed to propagate Bc-DLFL.1 raised the dependence of this lymphoma for tissue-derived factors for survival. The most likely candidates are the different receptors for BAFF. […] In normal B-cell development, TACI and BCMA is expressed following activation during plasmacytic differentiation, while BAFF-R disappears. BAFF-R is more characteristic of mature resting B-cells.

Substance: recombinant BAFF: recombinant BAFF, ligand of BAFF-R, BCMA and TACI, added to Bc-DLFL.1 cells in vitro
- short-term in vitro survival of Bc-DLFL.1 cells: moderately increased
